Paper PMC7481290, “Halogenation as a tool to tune antimicrobial activity of peptoids” (Scientific Reports, 2020)
Converted amounts (≈) assume the structure as drawn. Non-standard residues stand in square brackets, D forms with d. Residues, ends and D or L forms follow the SMILES beside them. Gly(Nα-4-Cl-benzyl) = O=C(O)CNCc1ccc(Cl)cc1; N(4-Br-benzyl)Gly = O=C(O)CNCc1ccc(Br)cc1; N(4-F-Bzl)Gly = O=C(O)CNCc1ccc(F)cc1; Nphe = O=C(O)CNCc1ccccc1; Nlys = NCCCCNCC(=O)O

Experiments:
S. aureus ATCC 29213 = assay type: cell-based, Staphylococcus aureus; conditions: ATCC 29213, 18 h
Procedure: (§1) Bacterial growth inhibition was determined by using broth microdilution according to the Clinical Laboratory Standards Institute[43]. The antibacterial activity of peptoids was tested against S. aureus ATCC 25923, ATCC29213, and methicillin resistant S. aureus USA 300, methicillin resistant S. epidermidis ATCC 51625, a biofilm producing methicillin resistant S. epidermidis ET-024[44], P. aeruginosa Pa01 (H103), and E. coli ATCC 25922. Bacteria, grown on agar plates for 18 h at 37 °C, were diluted to ∼1 × 10^8 CFU/mL in Mueller‐Hinton Broth II (MHB II). Twofold serial dilutions of peptoids in MHB II were inoculated with bacteria to achieve a final concentration of 5 × 10^5 CFU/mL in polypropylene 96 U‐well microtiter plates (Corning 3,897; ThermoFisher Scientific, Roskilde), followed by incubation at 37 °C in ambient air for 18 h. The MIC values were determined as the lowest concentration showing no visible bacterial growth. Experiments were performed twice (in technical triplicates) on 2 different days.

S. aureus ATCC 25923 = assay type: cell-based, Staphylococcus aureus; conditions: ATCC 25923, 18 h
Procedure: as §1

[1] = test system: Methicillin-resistant S. aureus USA 300; assay type: cell-based, Staphylococcus aureus; conditions: USA 300, 18 h
Procedure: as §1

[2] = test system: Methicillin-resistant S. epidermidis ATCC 51625; assay type: cell-based, Staphylococcus epidermidis; conditions: ATCC 51625, 18 h
Procedure: as §1

[3] = test system: Methicillin-resistant S. epidermidis ET-024; assay type: cell-based, Staphylococcus epidermidis; conditions: Methicillin-resistant ET-024, 18 h
Procedure: as §1

[4] = test system: P. aeruginosa PA01 (H103); assay type: cell-based, Pseudomonas aeruginosa; conditions: H103, 18 h
Procedure: as §1

E. coli ATCC 25922 = assay type: cell-based, Escherichia coli; conditions: ATCC 25922, 18 h
Procedure: as §1

Compound | Minimal inhibitory concentration SA^b (S. aureus ATCC 29213) | Minimal inhibitory concentration SA^a (S. aureus ATCC 25923) | Minimal inhibitory concentration MRSA^c [1] | Minimal inhibitory concentration MRSE^e [2] | Minimal inhibitory concentration MRSE^d [3] | Minimal inhibitory concentration PA^g [4] | Minimal inhibitory concentration EC^f (E. coli ATCC 25922)
NCCCCNCC(=O)N(CC(=O)N(CCCCN)CC(=O)N(CC(=O)N(CCCCN)CC(=O)N(CC(N)=O)Cc1ccc(F)cc1)Cc1ccc(F)cc1)Cc1ccc(F)cc1 [Compound 2] (H-[Nlys][N(4-F-Bzl)Gly][Nlys][N(4-F-Bzl)Gly][Nlys][N(4-F-Bzl)Gly]-NH2) | > 512 µg/mL | > 512 µg/mL | 512 µg/mL (≈ 571 µM) | 512 µg/mL (≈ 571 µM) | 128 µg/mL (≈ 143 µM) | > 512 µg/mL | 512 µg/mL (≈ 571 µM)
NCCCCNCC(=O)N(CC(=O)N(CCCCN)CC(=O)N(CC(=O)N(CCCCN)CC(=O)N(CC(N)=O)Cc1ccc(Cl)cc1)Cc1ccc(Cl)cc1)Cc1ccc(Cl)cc1 [Compound 3] (H-[Nlys][Gly(Nα-4-Cl-benzyl)][Nlys][Gly(Nα-4-Cl-benzyl)][Nlys][Gly(Nα-4-Cl-benzyl)]-NH2) | 64 µg/mL (≈ 67.6 µM) | 64 µg/mL (≈ 67.6 µM) | 16 µg/mL (≈ 16.9 µM) | 8 µg/mL (≈ 8.45 µM) | 16 µg/mL (≈ 16.9 µM) | 512 µg/mL (≈ 541 µM) | 512 µg/mL (≈ 541 µM)
NCCCCNCC(=O)N(CC(=O)N(CCCCN)CC(=O)N(CC(=O)N(CCCCN)CC(=O)N(CC(N)=O)Cc1ccc(Br)cc1)Cc1ccc(Br)cc1)Cc1ccc(Br)cc1 [Compound 4] (H-[Nlys][N(4-Br-benzyl)Gly][Nlys][N(4-Br-benzyl)Gly][Nlys][N(4-Br-benzyl)Gly]-NH2) | 16 µg/mL (≈ 14.8 µM) | 16 µg/mL (≈ 14.8 µM) | 16 µg/mL (≈ 14.8 µM) | 4 µg/mL (≈ 3.7 µM) | 4 µg/mL (≈ 3.7 µM) | > 512 µg/mL | 64 µg/mL (≈ 59.3 µM)
NCCCCNCC(=O)N(CC(=O)N(CCCCN)CC(=O)N(CC(=O)N(CCCCN)CC(=O)N(CC(N)=O)Cc1ccc(F)cc1)Cc1ccccc1)Cc1ccc(F)cc1 [Compound 6] (H-[Nlys][N(4-F-Bzl)Gly][Nlys][Nphe][Nlys][N(4-F-Bzl)Gly]-NH2) | > 512 µg/mL | > 512 µg/mL | > 512 µg/mL | 512 µg/mL (≈ 582 µM) | 256 µg/mL (≈ 291 µM) | > 512 µg/mL | > 512 µg/mL
NCCCCNCC(=O)N(CC(=O)N(CCCCN)CC(=O)N(CC(=O)N(CCCCN)CC(=O)N(CC(N)=O)Cc1ccc(Cl)cc1)Cc1ccccc1)Cc1ccc(Cl)cc1 [Compound 7] (H-[Nlys][Gly(Nα-4-Cl-benzyl)][Nlys][Nphe][Nlys][Gly(Nα-4-Cl-benzyl)]-NH2) | 256 µg/mL (≈ 281 µM) | 256 µg/mL (≈ 281 µM) | 128 µg/mL (≈ 140 µM) | 32 µg/mL (≈ 35.1 µM) | 64 µg/mL (≈ 70.2 µM) | 512 µg/mL (≈ 561 µM) | 256 µg/mL (≈ 281 µM)
NCCCCNCC(=O)N(CC(=O)N(CCCCN)CC(=O)N(CC(=O)N(CCCCN)CC(=O)N(CC(N)=O)Cc1ccc(Br)cc1)Cc1ccccc1)Cc1ccc(Br)cc1 [Compound 8] (H-[Nlys][N(4-Br-benzyl)Gly][Nlys][Nphe][Nlys][N(4-Br-benzyl)Gly]-NH2) | 64 µg/mL (≈ 63.9 µM) | 128 µg/mL (≈ 128 µM) | 64 µg/mL (≈ 63.9 µM) | 16 µg/mL (≈ 16 µM) | 32 µg/mL (≈ 32 µM) | 256 µg/mL (≈ 256 µM) | 256 µg/mL (≈ 256 µM)
